{"source": "patent US20100173972A1", "about": "“METHODS AND USES RELATED TO RHBDL4” (MEDICAL RESEARCH COUNCIL, priority 2007, published 2010)", "key": {"[1]": {"system": "proteasome", "assay": "Proteasome inhibitor treatment of cells expressing pro-TGFalpha", "format": "cell-based", "conditions": "5 μM", "procedure": "Cell culture and cell-based rhomboid cleavage assay. Cells were propagated in DMEM supplemented with 10% fetal calf serum. COS-7 cells were transfected in 35 mm wells with FuGENE 6 (Roche) as described (7). In brief, 250 ng plasmid encoding the substrate (as indicated in the description of the figures), 25 ng for the rhomboid tested, 50 ng for the GRP receptor and empty plasmid to bring the total DNA to 1 μg was used. For protease titration, 2.5 ng to 250 ng plasmid coding RHBDL4 was used. HeLa and HEK293T were transfected with polyethyleneimine (linear, MW 25000; Polysciences) as described (32) using twice the amount of DNA as used with FuGENE. Transfection efficiency was monitored by co-transfection of pEGFP (Invitrogen). Sixteen hours post transfection, medium was replaced with serum-free medium containing 10 μM BB94 (British Biotech) unless otherwise stated. For activation of endogenous rhomboid activity, phorbol 12-myristate 13-acetate (PMA) (1 μM, from Sigma) or bombesin (100 nM, from Sigma) was added to the cell medium. […] Cells were solubilized in SDS-sample buffer and analyzed by SDS-PAGE. […] The precipitate was recovered by centrifugation, washed with acetone and dissolved in SDS-PAGE sample buffer and analyzed by SDS-PAGE. […] Subsequently beads were washed with 20 mM Tris-Cl pH 8.0, 50 mM imidazole, eluted with SDS-sample buffer and analyzed by SDS-PAGE and Western blotting (see below). […]"}, "[2]": {"system": "TGFalpha release, HEK293T cells", "assay": "Time course after PMA induction of HEK293T cells overexpressing pro-TGFalpha, with protease inhibitors", "format": "cell-based, human", "procedure": "Cell culture and cell-based rhomboid cleavage assay. Cells were propagated in DMEM supplemented with 10% fetal calf serum. COS-7 cells were transfected in 35 mm wells with FuGENE 6 (Roche) as described (7). In brief, 250 ng plasmid encoding the substrate (as indicated in the description of the figures), 25 ng for the rhomboid tested, 50 ng for the GRP receptor and empty plasmid to bring the total DNA to 1 μg was used. For protease titration, 2.5 ng to 250 ng plasmid coding RHBDL4 was used. HeLa and HEK293T were transfected with polyethyleneimine (linear, MW 25000; Polysciences) as described (32) using twice the amount of DNA as used with FuGENE. Transfection efficiency was monitored by co-transfection of pEGFP (Invitrogen). Sixteen hours post transfection, medium was replaced with serum-free medium containing 10 μM BB94 (British Biotech) unless otherwise stated. For activation of endogenous rhomboid activity, phorbol 12-myristate 13-acetate (PMA) (1 μM, from Sigma) or bombesin (100 nM, from Sigma) was added to the cell medium. For inhibitor studies, the indicated protease inhibitors (from Calbiochem), diluted from a stock solution in DMSO, were compared with a carrier only. Medium was harvested typically after 24 to 30 hours; for inhibitor studies using 3,4-Dichloroisocoumarin (DCI) a time course with 0 minutes, 30 minutes and 4 hours was performed (FIG. 4C). Cells were solubilized in SDS-sample buffer and analyzed by SDS-PAGE. EndoH (New England Biolabs) and PNGaseF (New England Biolabs) treatment of SDS-solubilized cell extracts was performed according to the manufacturers instructions. Conditioned media were centrifuged for 10 minutes at full speed in a microfuge to remove cell debris, and subsequently proteins in the supernatant were precipitated by adding trichloroacetic acid (TCA) to 10%. The precipitate was recovered by centrifugation, washed with acetone and dissolved in SDS-PAGE sample buffer and analyzed by SDS-PAGE. Alternatively to TCA precipitation, TGFalpha-H8 in conditioned medium was captured by metal-chelate chromatography using Ni-NTA agarose beads (Qiagen) in the presence of 20 mM imidazole at pH 8.0. Subsequently beads were washed with 20 mM Tris-Cl pH 8.0, 50 mM imidazole, eluted with SDS-sample buffer and analyzed by SDS-PAGE and Western blotting (see below). Typically, from a 35 mm tissue culture dish, 10% of cell extracts and 20% of tissue culture supernatant were loaded. To increase the sensitivity, for experiments shown in FIGS. 1C, 3E, 4A and 4C, five times the amount of the media fractions were loaded.\nWestern blotting. Proteins were analyzed by 4-20% Tris-Glycine gradient gels (Invitrogen) followed by Western blot analysis using either anti FLAG M2-HRP (1:1000; Sigma), anti HA antibody 16B12 (1:1000; Covance), anti actin antibody ab8227 (1:5000; Abcam) or affinity purified polyclonal rabbit antibody anti RHBDL4 (1:4000; see above). In order to detect the 6 kDa form of TGFalpha, proteins were transferred on PVDF membrane with 0.2 μm pore size (Millipore) and probed with 1:100 anti TGFalpha antibody 134A-2B3 (Oncogene). For the detection of phosphorylated EGFR, PVDF membranes were blocked in 3% BSA in TBS-Tween supplemented with 200 μM NaVO3. Protein was detected with anti phospho-EGFR antibody 9H2 (1:2000, Upstate). […] Bound antibodies were detected by incubation with secondary antibody (Santa Cruz Biotechnology) followed by enhanced chemiluminescence (Amersham Biosciences)."}, "[3]": {"target": "T1, in vitro translated substrate comprising the transmembrane domain of Drosophila Gurken, P42287", "T1 chain": "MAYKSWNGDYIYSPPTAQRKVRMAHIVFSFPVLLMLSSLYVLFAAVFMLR"}, "[4]": {"target": "human pro-TGFalpha, P01135", "sequence (P01135 whole entry, looked up)": "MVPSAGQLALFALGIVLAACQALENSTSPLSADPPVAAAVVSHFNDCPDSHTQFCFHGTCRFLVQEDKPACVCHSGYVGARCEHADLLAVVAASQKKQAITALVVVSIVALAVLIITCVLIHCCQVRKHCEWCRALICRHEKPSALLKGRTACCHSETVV"}}, "note": "Where a SMILES comes first, the peptide text is derived from it. The star is where a group is joined. Decanoyl = CCCCCCCCCC(=O)*; Cbz = O=C(OCc1ccccc1)*; CH2Cl = ClC*", "data": [{"molecule": "CC(C)C[C@@H](C=O)NC(=O)[C@H](CC(C)C)NC(=O)[C@H](CC(C)C)NC(=O)OCc1ccccc1", "note": "[MG132] (Cbz-Leu-Leu-Leu-aldehyde)", "values": [{"measurement": "Effect on pro-TGFalpha forms (proteasomal degradation)", "setting": "[1]", "result": "led to unglycosylated TGFalpha"}]}, {"molecule": "CC(C)C[C@H](CC(=O)NO)C(=O)N[C@H](C(=O)N[C@@H](C)C(=O)NCCN)C(C)(C)C", "note": "[TAPI-2]", "values": [{"measurement": "Generation and release of the higher molecular weight form of TGFalpha", "setting": "[2]; inhibitor 20 μM", "result": "none of these inhibitors of known proprotein convertases had an effect"}]}, {"molecule": "CCCCCCCCCC(=O)N[C@@H](CCCN=C(N)N)C(=O)N[C@H](C(=O)N[C@@H](CCCCN)C(=O)N[C@@H](CCCN=C(N)N)C(=O)CCl)C(C)C", "note": "[furin inhibitor I] (Decanoyl-RVKR-CH2Cl)", "values": [{"measurement": "Generation and release of the higher molecular weight form of TGFalpha", "setting": "[2]; inhibitor 100 μM", "result": "none of these inhibitors of known proprotein convertases had an effect"}]}, {"molecule": "beta-secretase inhibitor IV", "values": [{"measurement": "Generation and release of the higher molecular weight form of TGFalpha", "setting": "[2]; inhibitor 10 μM", "result": "none of these inhibitors of known proprotein convertases had an effect"}]}, {"molecule": "recombinant human RHBDL2 from E. coli (protein) MAAVHDLEMESMNLNMGREMKEELEEEEKMREDGGGKDRAKSKKVHRIVSKWMLPEKSRGTYLERANCFPPPVFIISISLAELAVFIYYAVWKPQKQWITLDTGILESPFIYSPEKREEAWRFISYMLVHAGVQHILGNLCMQLVLGIPLEMVHKGLRVGLVYLAGVIAGSLASSIFDPLRYLVGASGGVYALMGGYFMNVLVNFQEMIPAFGIFRLLIIILIIVLDMGFALYRRFFVPEDGSPVSFAAHIAGGFAGMSIGYTVFSCFDKALLKDPRFWIAIAAYLACVLFAVFFNIFLSPAN", "values": [{"measurement": "in vitro cleavage assay (SDS-PAGE, decrease of intact substrate band)", "setting": "[3]", "result": "The substrate was cleaved, as indicated by the decreased amount of intact substrate band"}]}, {"molecule": "recombinant mouse RHBDL1 from E. coli (protein) MDRSSLLQLIQEQQLDPENTGFIGADTFAGLVHSHELPLDPTKLDMLVALAQSNERGQVCYQELVDLISSKRSSSFKRAIANGQRALPRDGLLDEPGLSVYKRFVRYVAYEILPCEVDRRWYFYRHRTCPPPVFMASVTLAQIIVFLCYGARLNKWVLQTYHPEYMKSPLVYHPGHRARAWRFLTYMFMHVGLEQLGFNALLQLMIGVPLEMVHGVLRISLLYLAGVLAGSLTVSITDMRAPVVGGSGGVYALCSAHLANVVMNWAGMRCPYKLLRMVLALVCMSSEVGRAVWLRFSPPLPASGPQPSFMAHLAGAVVGVSMGLTILRSYEERLRDQCGWWVVLLAYGTFLLFAIFWNVFAYDLLGADIPPPP", "values": [{"measurement": "in vitro cleavage assay (SDS-PAGE, decrease of intact substrate band)", "setting": "[3]", "result": "The substrate was cleaved, as indicated by the decreased amount of intact substrate band"}]}, {"molecule": "mouse RHBDL1 with an N-terminal HA3-tag (protein) MDRSSLLQLIQEQQLDPENTGFIGADTFAGLVHSHELPLDPTKLDMLVALAQSNERGQVCYQELVDLISSKRSSSFKRAIANGQRALPRDGLLDEPGLSVYKRFVRYVAYEILPCEVDRRWYFYRHRTCPPPVFMASVTLAQIIVFLCYGARLNKWVLQTYHPEYMKSPLVYHPGHRARAWRFLTYMFMHVGLEQLGFNALLQLMIGVPLEMVHGVLRISLLYLAGVLAGSLTVSITDMRAPVVGGSGGVYALCSAHLANVVMNWAGMRCPYKLLRMVLALVCMSSEVGRAVWLRFSPPLPASGPQPSFMAHLAGAVVGVSMGLTILRSYEERLRDQCGWWVVLLAYGTFLLFAIFWNVFAYDLLGADIPPPP", "values": [{"measurement": "secreted 37 kDa product, FLAG6-tagged pro-TGFalpha (Western blot)", "setting": "[4]", "result": "overexpression of RHBDL1 caused a minor increase of secreted 37 kDa product"}]}, {"molecule": "recombinant mouse RHBDL4, C-terminally His6-tagged, from E. coli (protein) MQRRTRGINTGLLLLLSQVFQIGINNIPPVTLATLAVNVWFFLNPWKPLYHSCISVEKCYQQKDWQRLLLSPLHHGDDWHLYFNMVSMLWKGVKLERRLGSRWFAYVIATFSLLTGVVYLLLQFTVAELLNQPDFKRNCAVGFSGVLFALKVLSNHYCPGGFVNILGFPVPNRFACWAELVAIHFCTPGTSFAGHLAGILVGLMYTQGPLKKIMDTCAGIFISHAGPSGQQNHFNNAGPSGYQNHYADGRPVTYDATYRNYDVYTAGLSEEEQLERALRASIWDRGNTRNGPMPYGFRLPPEEMRRQRLHRFDGQ", "values": [{"measurement": "in vitro cleavage assay (SDS-PAGE, decrease of intact substrate band)", "setting": "[3]", "result": "The substrate was cleaved, as indicated by the decreased amount of intact substrate band"}]}]}
